From PubChem BioAssay (NCI)
Values joined by “and” are separate entries in the source; they are usually repeats but may differ in a detail not shown here. Identical values can stand only once.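 Here, GI50 denotes the concentration required for 50% inhibition of growth. TGI: total growth inhibition.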

Experiments:
Test in all cases: NCI tumour cell line growth inhibition, 384-well format
[1] = system: ACHN renal
[2] = system: BT-549 breast
[3] = system: CAKI-1 renal
[4] = system: COLO 205 colon
[5] = system: DU-145 prostate
[6] = system: EKVX NSCLC
[7] = system: HCT-116 colon
[8] = system: HCT-15 colon
[9] = system: HL-60(TB) leukemia
[10] = system: HOP-92 NSCLC
[11] = system: HS 578T breast
[12] = system: K-562 leukemia
[13] = system: KM12 colon
[14] = system: LOX IMVI melanoma
[15] = system: M14 melanoma
[16] = system: MALME-3M melanoma
[17] = system: MCF7 breast
[18] = system: MDA-MB-231 breast
[19] = system: MDA-MB-468 breast
[20] = system: MOLT-4 leukemia
[21] = system: NCI-H226 lung
[22] = system: NCI-H23 lung
[23] = system: NCI-H322M lung
[24] = system: NCI-H522 lung
[25] = system: NCI/ADR-RES ovarian
[26] = system: OVCAR-4 ovarian
[27] = system: OVCAR-5 ovarian
[28] = system: OVCAR-8 ovarian
[29] = system: RPMI-8226 leukemia
[30] = system: RXF 393 renal
[31] = system: SF-295 CNS
[32] = system: SK-MEL-28 melanoma
[33] = system: SK-MEL-5 melanoma
[34] = system: SK-OV-3 ovarian
[35] = system: SNB-75 CNS
[36] = system: SR leukemia
[37] = system: SW-620 colon
[38] = system: TK-10 renal

CCc1cc2c(cc1N1CCC(N3CCOCC3)CC1)C(C)(C)c1[nH]c3cc(C#N)ccc3c1C2=O
GI50 [1]: 5.04 µM and 1.42 µM
TGI [1]: 12.3 µM and 3.12 µM
GI50 [2]: 4.75 µM and 0.496 µM
TGI [2]: 9 µM and 1.62 µM
GI50 [3]: 5.87 µM and 2.17 µM
TGI [3]: 14.2 µM and 5.76 µM
GI50 [4]: 7.03 µM and 1.16 µM
GI50 [5]: 1.63 µM and 0.992 µM
TGI [5]: 6.57 µM and 2.37 µM
GI50 [6]: 4.67 µM and 1.37 µM
TGI [6]: 11.4 µM and 2.98 µM
GI50 [7]: 5.79 µM and 1.47 µM
TGI [7]: 11.5 µM and 3.08 µM
TGI [8]: 8.23 µM and 1.45 µM
GI50 [9]: 6.14 µM and 0.686 µM
TGI [9]: 10.9 µM and 1.9 µM
GI50 [10]: 5.13 µM and 0.841 µM
TGI [10]: 11.3 µM and 2.62 µM
TGI [11]: 8.55 µM and 1.21 µM
GI50 [12]: 0.633 µM
TGI [12]: 5.17 µM
TGI [13]: 6.7 µM and 1.47 µM
GI50 [14]: 4.67 µM and 1.17 µM
TGI [14]: 9.04 µM and 2.67 µM
GI50 [15]: 5.43 µM and 0.726 µM
TGI [15]: 13.3 µM and 4.3 µM
GI50 [16]: 2.11 µM and 0.839 µM
TGI [16]: 5.69 µM and 2.24 µM
TGI [17]: 8.58 µM and 2.05 µM
GI50 [18]: 1.11 µM and 1.26 µM
TGI [18]: 2.73 µM and 3.32 µM
GI50 [19]: 2.56 µM and 0.567 µM
TGI [19]: 6.54 µM and 1.71 µM
GI50 [20]: 1.92 µM and 0.302 µM
TGI [20]: 7.47 µM and 1.5 µM
GI50 [21]: 3.1 µM
TGI [21]: 8.34 µM and 2.64 µM
GI50 [22]: 4.88 µM and 1.47 µM
TGI [22]: 13.1 µM and 10.9 µM
TGI [23]: 29.4 µM and 3.81 µM
GI50 [24]: 2.92 µM and 1.15 µM
TGI [24]: 8.64 µM and 2.58 µM
GI50 [25]: 0.666 µM and 1.54 µM
TGI [25]: 2.96 µM and 4.51 µM
GI50 [26]: 1.19 µM and 0.437 µM
TGI [26]: 2.46 µM and 1.5 µM
GI50 [27]: 5.33 µM and 1.21 µM
GI50 [28]: 4.12 µM and 1.11 µM
TGI [28]: 8.68 µM and 2.36 µM
GI50 [29]: 1.74 µM and 0.399 µM
TGI [29]: 4.44 µM and 1.85 µM
GI50 [30]: 2.45 µM and 0.547 µM
TGI [30]: 7.13 µM and 1.88 µM
TGI [31]: 11.3 µM and 2.17 µM
GI50 [32]: 17.5 µM and 1.8 µM
TGI [32]: 31.3 µM and 3.56 µM
TGI [33]: 8.31 µM and 1.6 µM
GI50 [34]: 11 µM and 1.15 µM
TGI [35]: 10.6 µM and 1.07 µM
TGI [36]: 0.686 µM
GI50 [37]: 5.07 µM and 0.686 µM
GI50 [38]: 11.4 µM and 1.45 µM
TGI [38]: 26.6 µM and 3.09 µM
